Laboratory results as given in US6815189B1, “Gene from acremonium chrysogenum encoding a protein with cephalosporin C acetylhydrolase activity and methods of use of such gene” (Antibiotics, S.A.U., priority 1999, dated 2004).
Like-named read-outs stand apart in the source and are kept apart here.

Columns and labels:
CPC-AH B [1] = molecular target: T1, CPC-AH B (Hapsidospora chrysogena, UniProt A0A086SV17); experiment: Effect of metals and inhibitors on CPC-AH B activity (HPLC test of DAC formation from CPC); format: biochemical, Acremonium chrysogenum
extracellular CPC-AH = details: cited from earlier work
CPC-AH B [2] = molecular target: T1, CPC-AH B; experiment: In-vitro deacetylation by enzymatic extracts from E. coli JM109(DE3)/pT7B2.2 (processed CPC-AH B); format: biochemical, Acremonium chrysogenum; details: substrate 20 mM, 60 minutes at 37° C.
[3] = final concentration of the ions 1 mM
[4] = metals 1 mM, pre-incubated 15 minutes at 4° C., NONE = 100

T1 sequence (A0A086SV17 107-383): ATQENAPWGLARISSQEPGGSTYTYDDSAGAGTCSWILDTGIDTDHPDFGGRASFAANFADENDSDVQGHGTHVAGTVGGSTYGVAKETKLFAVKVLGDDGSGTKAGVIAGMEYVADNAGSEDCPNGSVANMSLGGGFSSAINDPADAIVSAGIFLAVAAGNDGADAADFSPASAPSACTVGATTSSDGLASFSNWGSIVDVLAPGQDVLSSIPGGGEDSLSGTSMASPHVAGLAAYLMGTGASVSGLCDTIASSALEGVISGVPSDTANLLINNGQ

Question: Which results are given for `O=S(=O)([O-])[O-].[Fe+2]` [FeSO4]?
Answer: Effect of metal ion on CPC-AH B activity (CPC-AH B [1]; [3]): inhibit activity to a greater or lesser extent; CPC-AH activity (%) (CPC-AH B [1]; [4]): 49%

Question: For `CC(=O)OCC1=C(C(=O)O)N2C(=O)[C@@H](NC(=O)CCC[C@@H](N)C(=O)O)[C@H]2SC1` [CPC, cephalosporin C], which Km (extracellular CPC-AH) is on record?
Answer: 20 mM

Question: And the “Deacetylation of substrate” value (CPC-AH B [2])?
Answer: detected appearance of the corresponding deacetylated derivatives

Question: For `O=S(=O)([O-])[O-].[Mg+2]` [MgSO4], which “Effect of metal ion on CPC-AH B activity” value (CPC-AH B [1]; [3]) is on record?
Answer: stimulating effect

Question: What about the “CPC-AH activity (%)” value (CPC-AH B [1]; [4]) of the same compound?
Answer: 141%

Question: For `[Cl-].[Na+]` [NaCl], which “CPC-AH activity (%)” value (CPC-AH B [1]) is on record?
Answer: 94%

Question: With CuSO4 as the compound, how does the “CPC-AH activity (%)” value (CPC-AH B [1]) read?
Answer: 64%

Question: What about the “Effect of metal ion on CPC-AH B activity” value (CPC-AH B [1]) of the same compound?
Answer: inhibit activity to a greater or lesser extent

Question: For `CC(=O)OCC1=C(C(=O)O)N2C(=O)[C@@H](N)[C@H]2SC1` [7-ACA, 7-aminocephalosporanic acid], which “Deacetylation of substrate” value (CPC-AH B [2]) is on record?
Answer: detected appearance of the corresponding deacetylated derivatives

Question: For CoSO4, which “CPC-AH activity (%)” value (CPC-AH B [1]) is on record?
Answer: 80%

Question: With `O=C(O)CN(CCN(CC(=O)O)CC(=O)O)CC(=O)O` [EDTA] as the compound, how does the “CPC-AH activity (%)” value (CPC-AH B [1]; inhibitor 0.1 mM, NONE = 100) read?
Answer: 91%

Question: And the “CPC-AH activity (%)” value (CPC-AH B [1]; inhibitor 1 mM, NONE = 100)?
Answer: 87%

Question: And the “CPC-AH activity (%)” value (CPC-AH B [1]; inhibitor 10 mM, NONE = 100)?
Answer: 86%

Question: Which “CPC-AH activity (%)” value (CPC-AH B [1]; [4]) does the source give for `O=C([O-])[O-].[K+].[K+]` [K2CO3] here?
Answer: 77%

Question: For CaCl2, which “CPC-AH activity (%)” value (CPC-AH B [1]) is on record?
Answer: 147%

Question: What about the “Effect of metal ion on CPC-AH B activity” value (CPC-AH B [1]) of the same compound?
Answer: stimulating effect

Question: With `O=S(=O)(F)Cc1ccccc1` [PMSF, phenylmethylsulphonyl fluoride] as the compound, how does the “Effect of inhibitor on CPC-AH B activity” value (CPC-AH B [1]) read?
Answer: strong inhibitory effect

Question: What does the source list for `O=S(=O)([O-])[O-].[Zn+2]` [ZnSO4]?
Answer: Effect of metal ion on CPC-AH B activity (CPC-AH B [1]; [3]): inhibit activity to a greater or lesser extent; CPC-AH activity (%) (CPC-AH B [1]; [4]): 60%

Question: What does the source list for AgNO3?
Answer: CPC-AH activity (%) (CPC-AH B [1]): 60%; Effect of metal ion on CPC-AH B activity (CPC-AH B [1]): inhibit activity to a greater or lesser extent

Question: Which results are given for `O=S(=O)([O-])[O-].[Mn+2]` [MnSO4]?
Answer: Effect of metal ion on CPC-AH B activity (CPC-AH B [1]; [3]): stimulating effect; CPC-AH activity (%) (CPC-AH B [1]; [4]): 140%
